Assay results as given in patent US20140073639A1 (priority 2012, published 2014).
In brackets after ≈: the same amount, converted by molar mass.

What was measured:
B. Anthracis = assay: microbe, parasite or virus in culture; assay type: cell-based; conditions: for inhibition at 3 µM / inhibition at 10 µM / inhibition at 30 µM: Bacillus anthracis; for inhibition at 3 µM: read-out: B. Anthracis 3 μM (growth inhibition); for inhibition at 10 µM: read-out: B. Anthracis 10 μM (growth inhibition); for inhibition at 30 µM: read-out: B. Anthracis 30 μM (growth inhibition)
S. MRSA = assay: microbe, parasite or virus in culture; assay type: cell-based; conditions: for inhibition at 3 µM / inhibition at 10 µM / inhibition at 30 µM: Staphylococcus aureus, MRSA; for inhibition at 3 µM: read-out: S. MRSA 3 μM (growth inhibition); for inhibition at 10 µM: read-out: S. MRSA 10 μM (growth inhibition); for inhibition at 30 µM: read-out: S. MRSA 30 μM (growth inhibition)
[1] = assay type: cell-based

Row | SMILES | inhibition at 3 µM (B. Anthracis; 3 μM) [%] | inhibition at 10 µM (B. Anthracis; 10 μM) [%] | inhibition at 30 µM (B. Anthracis; 30 μM) [%] | inhibition at 3 µM (S. MRSA; 3 μM) [%] | inhibition at 10 µM (S. MRSA; 10 μM) [%] | inhibition at 30 µM (S. MRSA; 30 μM) [%] | MIC, 25% Serum [1] [µM] | MIC, No Serum [1] [µM] | B. Anthracis 3 μM (growth inhibition) (B. Anthracis; 3 μM) | B. Anthracis 10 μM (growth inhibition) (B. Anthracis; 10 μM) | B. Anthracis 30 μM (growth inhibition) (B. Anthracis; 30 μM) | S. MRSA 3 μM (growth inhibition) (S. MRSA; 3 μM) | S. MRSA 10 μM (growth inhibition) (S. MRSA; 10 μM) | S. MRSA 30 μM (growth inhibition) (S. MRSA; 30 μM)
1 | O=C(NS(=O)(=O)C(F)(F)F)C(Cc1ccccc1)N1C(=O)/C(=C\c2ccc(-c3ccc(Cl)c(Cl)c3)o2)NC1=S (stereo not shown) [Cmpd 58] | 69.4 | 98.7 | 97.4 | 0.23 | 81.7 | 94.5 | >250 | 7.8 (≈ 4.82 µg/mL) | – | – | – | – | – | –
2 | N#CNC(=O)C(Cc1ccccc1)N1C(=O)/C(=C\c2ccc(-c3cccc(Cl)c3)o2)NC1=S (stereo not shown) [Cmpd 68] | -1.9 | 6.31 | 12.5 | -0.24 | -1.1 | -0.93 | >250 | 125 (≈ 59.6 µg/mL) | – | – | – | – | – | –
3 | CS(=O)(=O)NC(=O)C(Cc1ccccc1)N1C(=O)/C(=C\c2ccc(-c3ccc(Cl)c(Cl)c3)o2)NC1=S (stereo not shown) [Cmpd 57] | 45.2 | 96.4 | 90.2 | 3.18 | 30.9 | 58 | >250 | 15.6 (≈ 8.81 µg/mL) | – | – | – | – | – | –
4 | O=C(O)C(Cc1ccccc1)N1C(=O)/C(=C\c2ccc(-c3ncc(Cl)cc3Cl)o2)NC1=S (stereo not shown) [Cmpd 72] | -13.5 | 9.07 | 98.1 | -2.17 | -5.02 | 53 | 250 (≈ 122 µg/mL) | 62.5 (≈ 30.5 µg/mL) | – | – | – | – | – | –
5 | O=C(O)[C@H](Cc1ccccc1)N1C(=O)/C(=C\c2ccc(-c3cc(C(F)(F)F)ccc3Cl)o2)NC1=S [Cmpd 53] | 88.2 | 95.5 | 92.5 | -4.72 | 92.3 | 92.9 | >250 | 15.6 (≈ 8.13 µg/mL) | – | – | – | – | – | –
6 | O=C(O)C(Cc1ccccc1)N1C(=O)/C(=C\c2ccc(-c3ccc(Cl)cc3)o2)NC1=S (stereo not shown) [Cmpd 38] | 4.99 | 68.9 | 99.7 | -13.5 | -16.9 | 86.6 | >250 | 62.5 (≈ 28.3 µg/mL) | – | – | – | – | – | –
7 | O=C(O)[C@@H](Cc1ccccc1)N1C(=O)/C(=C\c2ccc(-c3ccc(Cl)c(Cl)c3)o2)NC1=S [Cmpd 47] | 9.41 | 107 | 107 | -13.8 | 84.4 | 103 | 250 (≈ 122 µg/mL) | 7.8 (≈ 3.8 µg/mL) | – | – | – | – | – | –
8 | O=C(O)C(Cc1ccccc1)N1C(=O)/C(=C\c2ccc(-c3ccccc3)o2)NC1=S (stereo not shown) [Cmpd 60] | 2.29 | 11.6 | 18 | -2.55 | -5.71 | -8.8 | >250 | 125 (≈ 52.3 µg/mL) | – | – | – | – | – | –
9 | O=C(O)C(Cc1ccccc1)N1C(=O)/C(=C\c2ccc(Cl)c(Cl)c2)NC1=S (stereo not shown) [Cmpd 71] | 0.05 | -8.93 | -17.3 | -0.86 | -2.74 | -5.12 | >250 | >250 | – | – | – | – | – | –
10 | O=C1Nc2ccc(Br)cc2/C1=C1/NC(=S)N(C(Cc2ccccc2)C(=O)O)C1=O (stereo not shown) [Cmpd 31] | – | 2.5 | 88 | – | -8 | -2.22 | >250 | 250 (≈ 118 µg/mL) | – | – | – | – | – | –
11 | Cc1oc(=O)oc1COC(=O)C(Cc1ccccc1)N1C(=O)/C(=C\c2ccc(-c3ccc(Cl)c(Cl)c3)o2)NC1=S (stereo not shown) [Cmpd 64] | -0.01 | 0.22 | -1.34 | 0.71 | -1.48 | -3.34 | >250 | >250 | – | – | – | – | – | –
12 | N#CNC(=O)C(Cc1ccccc1)N1C(=O)/C(=C\c2ccc(-c3ccc(Cl)c(Cl)c3)o2)NC1=S (stereo not shown) [Cmpd 69] | 0.13 | 100 | 99.2 | 0.03 | 0.65 | 97.5 | 250 (≈ 128 µg/mL) | 15.6 (≈ 7.98 µg/mL) | – | – | – | – | – | –
13 | O=C(O)[C@H](Cc1ccccc1)N1C(=O)/C(=C\c2ccc(-c3ccc(Cl)c(Cl)c3)o2)NC1=S [Cmpd 48] | -0.39 | 108 | 107 | -16.1 | 80.6 | 104 | 250 (≈ 122 µg/mL) | 7.8 (≈ 3.8 µg/mL) | – | – | – | – | – | –
14 | CCOC(=O)C(Cc1ccccc1)N1C(=O)/C(=C\c2ccc(-c3ccc(Cl)c(Cl)c3)o2)NC1=S (stereo not shown) [Cmpd 55] | – | -50.8 | -6.41 | – | 0.57 | -2.92 | >250 | >250 | – | – | – | – | – | –
15 | CCC(C(=O)O)N1C(=O)/C(=C\c2ccc(-c3ccc(Cl)c(Cl)c3)o2)NC1=S (stereo not shown) [Cmpd 44] | 4.13 | 97.2 | 94 | -2.47 | 4.53 | 92.9 | >250 | 250 (≈ 106 µg/mL) | – | – | – | – | – | –
16 | O=C1Nc2cc(Cl)c(Br)cc2/C1=C1/NC(=S)N(C(Cc2ccccc2)C(=O)O)C1=O (stereo not shown) [Cmpd 32] | 11.3 | 40.2 | 98.8 | -11.9 | -19.4 | 93.8 | >250 | – | – | – | – | – | – | –
17 | O=C(O)C(Cc1ccccc1)N1C(=O)/C(=C\c2ccc(-c3ccnc(Cl)c3)o2)NC1=S (stereo not shown) [Cmpd 70] | 2.54 | 16 | 4.62 | -0.84 | -1.26 | -1.4 | >250 | 125 (≈ 56.7 µg/mL) | – | – | – | – | – | –
18 | NC(=O)C(Cc1ccccc1)N1C(=O)/C(=C\c2ccc(-c3ccc(Cl)c(Cl)c3)o2)NC1=S (stereo not shown) [Cmpd 54] | 20.6 | 94.8 | 93 | 2.03 | 30.1 | 57.5 | >250 | >250 | – | – | – | – | – | –
19 | O=C([O-])C(Cc1ccccc1)N1C(=O)/C(=C\c2ccc(-c3cccc(Cl)c3)o2)NC1=S.[Na+] (stereo not shown) [Cmpd 67] | 6.01 | 4.51 | 87.6 | 0.37 | -4.15 | -7.41 | >250 | 250 | – | – | – | – | – | –
20 | O=C(O)C(Cc1ccccc1)N1C(=O)/C(=C\c2ccc(-c3ccc(Cl)c(Cl)c3)o2)NC1=S (stereo not shown) [Cmpd 46] | – | – | – | – | – | – | >250 | 15.6 (≈ 7.6 µg/mL) | 108.4 | 108.46 | 106.96 | −17.39 | 93.71 | 103.37
21 | CCC(C(=O)NS(C)(=O)=O)N1C(=O)/C(=C\c2ccc(-c3ccc(Cl)c(Cl)c3)o2)NC1=S (stereo not shown) [Cmpd 59] | 6.4 | 6.23 | 19.6 | 1.71 | 2.56 | 0.06 | >250 | 125 (≈ 62.8 µg/mL) | – | – | – | – | – | –
